Legend:
[1] = tested on: recent-onset symptomatic AF; assay: Clinical study: cardioversion of recent-onset atrial fibrillation to sinus rhythm with orally inhaled flecainide; format: in vivo, human; conditions: 120 mg flecainide acetate (eTLD) by oral inhalation; for conversion rate (AF to sinus rhythm): cardioversion success at 90 minutes post-dose
Method: A flecainide acetate oral inhalation solution for acute cardioversion of recent-onset symptomatic AF was administered to 80 patients to determine if height, weight, and body mass index (BMI) are predictors of successful cardioversion of AF to sinus rhythm (SR) with the inhalation solution.
The flecainide formulation used in this study is described in TABLE 1.
In this study, for inhalation delivery of flecainide, an estimated total lung dose (eTLD) of 120 mg were calculated to account for losses of flecainide in the inhalation device and losses of flecainide in subjects' mouth and throat. An 120 mg eTLD was thereby used to denote the dose that actually reached the lungs of the subjects. By design, in all nebulizers there can be a residual volume or mass of drug solution that stays in the nebulizer, and there can also be a percentage of the aerosol caught by subject's throat and mouth. For instance, in this study, it was estimated that 30% of the aerosol was lost in subject's throat and mouth. Therefore the eTLD would be: eTLD=(100-30) %*amount of aerosolized drug that left nebulizer=70%*(amount of drug placed in nebulizer−amount of drug staying in nebulizer).
The AeroEclipse®II BAN inhaler was used for nebulization and inhalation of the exemplary flecainide formulations. It is available as an approved device in several countries across the world including European countries, USA, and Canada. The inhaler is a hand-held, breath actuated, jet nebulizer which operates through a source of compressed air available as medical air in the hospital ER. The AeroEclipse®BAN delivers a high respirable dose and an optimal particle size to reach the deeper lung regions to enable faster drug absorption. Flecainide acetate inhalation solution was transferred from the vial into the reservoir of the AeroEclipse®II BAN at a volume corresponding to the required dose to the lung. To administer an estimated total lung dose of […] flecainide acetate, the nebulizer was filled with 4.2 mL of Formulation A described in TABLE 1. The total volume filled in each dosing cup was based on the assumption of a 70% (v/v) lung deposition, a 12.5% (v/v) loss due to fugitive aerosol based on in-vitro experiments, and device retention of approximately 1.5 mL of the solution.
Participants in the study were administered the study medications according to the following guidelines: • Subject self-administers inhalation using the AeroEclipse® II BAN • Subject is seated upright in a comfortable chair or adjustable bed with table that has adjustable height in front (e.g. overbed table on casters) where the subject can rest his/her arms (e.g. overbed table on casters) from approximately 30 minutes prior to the start of inhalation up to at least 15 minutes after the last inhalation is completed. […]

[2] = Flecainide peak plasma concentration (Cmax) versus BMI classification in atrial fibrillation patients; format: in vivo, human; conditions: atrial fibrillation patients (n=81); 120 mg flecainide acetate via oral inhalation; both conversion and no conversion cohorts
Method: Logistic regression was performed to identify predictors of cardioversion success at 90 minutes post-dose, and potential interactions were examined by linear regression.
FIG. 6 is a chart depicting median Cmax versus BMI classification (normal (BMI<25), overweight (BMI≥25 and <30), obese/severe obese (BMI≥30)) in atrial fibrillation patients (n=81) administered 120 mg flecainide acetate via oral inhalation.

[3] = Solubility of flecainide acetate in water solution; format: physicochemical

SMILES: O=C(NCC1CCCCN1)c1cc(OCC(F)(F)F)ccc1OCC(F)(F)F (stereo not drawn) [flecainide acetate]
- conversion rate (AF to sinus rhythm) ([1]; obese patients (BMI≥30 and <35 kg/m^2)): 43%
- conversion rate (AF to sinus rhythm) ([1]; overweight patients (BMI≥25 and <30 kg/m^2)): 47%
- conversion rate (AF to sinus rhythm) ([1]; patients with normal BMI (<25 kg/m^2)): 53%
- AF successfully converted to sinus rhythm ([1]; severely obese patients, 90 minutes post-dose): none
- median flecainide peak plasma concentration (Cmax) versus BMI category [2]: positive correlation
- solubility [3]: ~60 mg/mL
